PubChem BioAssay (NCI)
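Grown in 96-well plates, cells were treated for 48 hours with each compound at five concentrations. Insufficient inhibition: endpoint recorded as highest concentration tested. At the GI50, growth is halved. TGI is the concentration that stops growth completely.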

Experiments:
Experiment in all cases: NCI tumour cell line growth inhibition, 48 h
786-0 renal = system: 786-0 renal
A498 renal = system: A498 renal
A549 NSCLC = system: A549 NSCLC
ACHN renal = system: ACHN renal
BT-549 breast = system: BT-549 breast
CAKI-1 renal = system: CAKI-1 renal
CCRF-CEM leukemia = system: CCRF-CEM leukemia
COLO 205 colon = system: COLO 205 colon
DU-145 prostate = system: DU-145 prostate
EKVX NSCLC = system: EKVX NSCLC
HCC-2998 colon = system: HCC-2998 colon
HCT-116 colon = system: HCT-116 colon
HCT-15 colon = system: HCT-15 colon
HL-60(TB) leukemia = system: HL-60(TB) leukemia
HOP-62 NSCLC = system: HOP-62 NSCLC
HOP-92 NSCLC = system: HOP-92 NSCLC
HS 578T breast = system: HS 578T breast
HT29 colon = system: HT29 colon
IGROV1 ovarian = system: IGROV1 ovarian
K-562 leukemia = system: K-562 leukemia
KM12 colon = system: KM12 colon
LOX IMVI melanoma = system: LOX IMVI melanoma
M14 melanoma = system: M14 melanoma
MALME-3M melanoma = system: MALME-3M melanoma
MCF7 breast = system: MCF7 breast
MDA-MB-231 breast = system: MDA-MB-231 breast
MDA-MB-435 = system: MDA-MB-435
MOLT-4 leukemia = system: MOLT-4 leukemia
NCI-H226 lung = system: NCI-H226 lung
NCI-H23 lung = system: NCI-H23 lung
NCI-H460 lung = system: NCI-H460 lung
NCI-H522 lung = system: NCI-H522 lung
NCI/ADR-RES ovarian = system: NCI/ADR-RES ovarian
OVCAR-3 ovarian = system: OVCAR-3 ovarian
OVCAR-4 ovarian = system: OVCAR-4 ovarian
OVCAR-5 ovarian = system: OVCAR-5 ovarian
OVCAR-8 ovarian = system: OVCAR-8 ovarian
PC-3 prostate = system: PC-3 prostate
RPMI-8226 leukemia = system: RPMI-8226 leukemia
RXF 393 renal = system: RXF 393 renal
SF-268 CNS = system: SF-268 CNS
SF-295 CNS = system: SF-295 CNS
SF-539 CNS = system: SF-539 CNS
SK-MEL-2 melanoma = system: SK-MEL-2 melanoma
SK-MEL-28 melanoma = system: SK-MEL-28 melanoma
SK-MEL-5 melanoma = system: SK-MEL-5 melanoma
SK-OV-3 ovarian = system: SK-OV-3 ovarian
SN12C renal = system: SN12C renal
SNB-19 CNS = system: SNB-19 CNS
SNB-75 CNS = system: SNB-75 CNS
SR leukemia = system: SR leukemia
SW-620 colon = system: SW-620 colon
T-47D breast = system: T-47D breast
TK-10 renal = system: TK-10 renal
U251 CNS = system: U251 CNS
UACC-257 melanoma = system: UACC-257 melanoma
UACC-62 melanoma = system: UACC-62 melanoma
UO-31 renal = system: UO-31 renal

CCS(=O)(=O)c1ccc(OC)c(Nc2ncc(-c3cccc(-c4ccccc4F)c3)o2)c1
GI50 (786-0 renal): 20.3 µM | TGI (786-0 renal): > 25 µM | GI50 (A498 renal): 1.07 µM | TGI (A498 renal): 7.54 µM | GI50 (A549 NSCLC): > 25 µM | TGI (A549 NSCLC): > 25 µM | GI50 (ACHN renal): 13.1 µM | TGI (ACHN renal): > 25 µM | GI50 (BT-549 breast): > 22.2 µM | TGI (BT-549 breast): > 25 µM | GI50 (CAKI-1 renal): 10.8 µM | TGI (CAKI-1 renal): > 25 µM | GI50 (CCRF-CEM leukemia): > 25 µM | TGI (CCRF-CEM leukemia): > 25 µM | GI50 (COLO 205 colon): > 20.1 µM | TGI (COLO 205 colon): > 25 µM | GI50 (DU-145 prostate): > 25 µM | TGI (DU-145 prostate): > 25 µM | GI50 (EKVX NSCLC): 7.89 µM | TGI (EKVX NSCLC): > 25 µM | GI50 (HCC-2998 colon): > 25 µM | TGI (HCC-2998 colon): > 25 µM | GI50 (HCT-116 colon): > 22.9 µM | TGI (HCT-116 colon): > 25 µM | GI50 (HCT-15 colon): 16.8 µM | TGI (HCT-15 colon): > 25 µM | GI50 (HL-60(TB) leukemia): > 25 µM | TGI (HL-60(TB) leukemia): > 25 µM | GI50 (HOP-62 NSCLC): > 19.9 µM | TGI (HOP-62 NSCLC): > 25 µM | GI50 (HOP-92 NSCLC): 3.16 µM | TGI (HOP-92 NSCLC): 20.7 µM | GI50 (HS 578T breast): 3.63 µM | TGI (HS 578T breast): 15.8 µM | GI50 (HT29 colon): 15 µM | TGI (HT29 colon): > 25 µM | GI50 (IGROV1 ovarian): 6.1 µM | TGI (IGROV1 ovarian): 20.7 µM | GI50 (K-562 leukemia): 5.75 µM | TGI (K-562 leukemia): > 25 µM | GI50 (KM12 colon): 0.833 µM | TGI (KM12 colon): > 25 µM | GI50 (LOX IMVI melanoma): 15.1 µM | TGI (LOX IMVI melanoma): > 25 µM | GI50 (M14 melanoma): > 25 µM | TGI (M14 melanoma): > 25 µM | GI50 (MALME-3M melanoma): > 25 µM | TGI (MALME-3M melanoma): > 25 µM | GI50 (MCF7 breast): > 21 µM | TGI (MCF7 breast): > 25 µM | GI50 (MDA-MB-231 breast): 14.1 µM | TGI (MDA-MB-231 breast): > 25 µM | GI50 (MDA-MB-435): > 25 µM | TGI (MDA-MB-435): > 25 µM | GI50 (MOLT-4 leukemia): > 25 µM | TGI (MOLT-4 leukemia): > 25 µM | GI50 (NCI-H226 lung): 2.24 µM | TGI (NCI-H226 lung): > 25 µM | GI50 (NCI-H23 lung): > 23.8 µM | TGI (NCI-H23 lung): > 25 µM | GI50 (NCI-H460 lung): > 25 µM | TGI (NCI-H460 lung): > 25 µM | GI50 (NCI-H522 lung): 10.6 µM | TGI (NCI-H522 lung): > 25 µM | GI50 (NCI/ADR-RES ovarian): 15.4 µM | TGI (NCI/ADR-RES ovarian): > 25 µM | GI50 (OVCAR-3 ovarian): 15.7 µM | TGI (OVCAR-3 ovarian): > 25 µM | GI50 (OVCAR-4 ovarian): 3.79 µM | TGI (OVCAR-4 ovarian): > 25 µM | GI50 (OVCAR-5 ovarian): 13 µM | TGI (OVCAR-5 ovarian): > 25 µM | GI50 (OVCAR-8 ovarian): > 25 µM | TGI (OVCAR-8 ovarian): > 25 µM | GI50 (PC-3 prostate): 15.5 µM | TGI (PC-3 prostate): > 25 µM | GI50 (RPMI-8226 leukemia): 23.9 µM | TGI (RPMI-8226 leukemia): > 25 µM | GI50 (RXF 393 renal): 2.45 µM | TGI (RXF 393 renal): > 17.9 µM | GI50 (SF-268 CNS): 15.1 µM | TGI (SF-268 CNS): > 25 µM | GI50 (SF-295 CNS): 10.1 µM | TGI (SF-295 CNS): > 25 µM | GI50 (SF-539 CNS): 7.81 µM | TGI (SF-539 CNS): > 25 µM | GI50 (SK-MEL-2 melanoma): > 25 µM | TGI (SK-MEL-2 melanoma): > 25 µM | GI50 (SK-MEL-28 melanoma): > 25 µM | TGI (SK-MEL-28 melanoma): > 25 µM | GI50 (SK-MEL-5 melanoma): > 14.6 µM | TGI (SK-MEL-5 melanoma): > 25 µM | GI50 (SK-OV-3 ovarian): 5.1 µM | TGI (SK-OV-3 ovarian): 14.3 µM | GI50 (SN12C renal): 14.8 µM | TGI (SN12C renal): > 25 µM | GI50 (SNB-19 CNS): > 17.2 µM | TGI (SNB-19 CNS): > 25 µM | GI50 (SNB-75 CNS): 4.77 µM | TGI (SNB-75 CNS): 24.3 µM | GI50 (SR leukemia): > 25 µM | TGI (SR leukemia): > 25 µM | GI50 (SW-620 colon): > 25 µM | TGI (SW-620 colon): > 25 µM | GI50 (T-47D breast): 6.45 µM | TGI (T-47D breast): > 25 µM | GI50 (TK-10 renal): 7.32 µM | TGI (TK-10 renal): > 25 µM | GI50 (U251 CNS): 12.1 µM | TGI (U251 CNS): > 25 µM | GI50 (UACC-257 melanoma): > 25 µM | TGI (UACC-257 melanoma): > 25 µM | GI50 (UACC-62 melanoma): > 25 µM | TGI (UACC-62 melanoma): > 25 µM | GI50 (UO-31 renal): 1.48 µM | TGI (UO-31 renal): 20.3 µM
